According to BindingDB's records for doi:10.1021/ml5001867 (Abbvie, 2014):

Assay: Inhibition of BCL-XL (unknown origin) expressed in mcl-1 deficient MEF assessed as induction of cell killing incubated for 48 hrs in presence of 10% FBS by Cell titerGlo reagent based assay

| Structure (SMILES) | EC50 [µM] |
| --- | --- |
| O=C(Nc1nc2ccccc2s1)c1cccc2c1CN(c1nc(C(=O)O)c(CCOc3ccc(-n4ncc5cncnc54)cc3)s1)CC2 | > 5 |
| CN(C)CCCNc1ncnc2c1cnn2-c1ccc(OCCCc2sc(N3CCc4cccc(C(=O)Nc5nc6ccccc6s5)c4C3)nc2C(=O)O)cc1 | 0.01 |
| O=C(Nc1nc2ccccc2s1)c1cccc2c1CN(c1nc(C(=O)O)c(CCCOc3ccc(-n4ncc5cncnc54)cc3)s1)CC2 | 0.06 |
| CN1CCN(CCCNc2ncnc3c2cnn3-c2ccc(OCCCc3sc(N4CCc5cccc(C(=O)Nc6nc7ccccc7s6)c5C4)nc3C(=O)O)cc2)CC1 | 0.02 |
| O=C(Nc1nc2ccccc2s1)c1cccc2c1CN(c1nc(C(=O)O)c(CCCCOc3ccc(-n4ncc5cncnc54)cc3)s1)CC2 | > 5 |
| O=C(Nc1nc2ccccc2s1)c1cccc2c1CN(c1nc(C(=O)O)c(CCOc3cccc(-n4ncc5cncnc54)c3)s1)CC2 | > 5 |
| O=C(Nc1nc2ccccc2s1)c1cccc2c1CN(c1nc(C(=O)O)c(CCCOc3cccc(-n4ncc5cncnc54)c3)s1)CC2 | > 5 |
| O=C(Nc1nc2ccccc2s1)c1cccc2c1CN(c1nc(C(=O)O)c(CCCOc3ccc(-n4cccn4)cc3)s1)CC2 | 0.64 |
